Source: patent US4178284A, “Octapeptides” (American Home Products Corporation, priority 1978, dated 1979)

What was measured:
[1] = test system: growth hormone release; assay: growth hormone release, serum concentration, procedure of Lien et al. Febs. Letters 88 208-210 (1978); assay type: in vivo; settings: 2 milligrams per kilogram; control 55±8 ng/ml; p<0.05
Procedure: Illustrative of the growth hormone releasing ability of the compounds of this invention is the activity of des-(66-88)-β-endorphin, representative of the other compounds, which at 2 milligrams per kilogram caused growth hormone release to result in a serum concentration of 380±124 ng/ml. as related to the control concentration of 55±8 ng/ml. at a confidence level of p<0.05, following the procedure of Lien et al. Febs. Letters 88 208-210 (1978).

[2] = test system: analgesia; assay: analgesia on intracerebroventricular administration; assay type: in vivo
[3] = test system: analgesia; settings: Tseng et al.; cited from earlier work
[4] = test system: analgesia; settings: Loh et al.; cited from earlier work
[5] = test system: growth hormone and prolactin release; settings: rat; Dupont et al., Rivier et al.; cited from earlier work

Substance | growth hormone serum concentration [1] [ng/mL] | intracerebroventricular analgesic activity [2] | analgesic activity by intravenous injection [3] | analgesic activity by intracerebral administration [4] | growth hormone release stimulation [5] | prolactin release stimulation [5]
L-Tyrosyl-glycyl-glycyl-L-phenylalanyl-L-methionyl-L-lysyl-glycyl-L-glutamine diacetate [des-(66-88)-β-endorphin] | 380 ± 124 | intracerebroventricular analgesic agents |  |  |  | 
H-Tyr-Gly-Gly-Phe-Met-Thr-Ser-Glu-Lys-Ser-Gln-Thr-Pro-Leu-Val-Thr-Leu-Phe-Lys-Asn-Ala-Ile-Ile-Lys-Asn-Ala-His-Lys-Lys-Gly-Gln-OH (H-YGGFMTSEKSQTPLVTLFKNAIIKNAHKKGQ-OH) [β-Endorphin, naturally occurring peptide isolated by Bradbury et al. and Li et al] |  |  | potent analgesic activity | potent analgesic activity | growth hormone and prolactin release stimulation | growth hormone and prolactin release stimulation
